According to patent US20250360100A1, “ANTI-CANCER DERIVATIVES OF OVATODIOLIDE AND USE THEREOF” (ARJIL BIOTECH HOLDING COMPANY LIMITED, priority 2024, published 2025):
Converted amounts (≈) assume the structure as drawn.

How the values were obtained:
[1] = system: Colo205 (human colon adenocarcinoma cells); assay: MTT cytotoxicity assay in Colo205 cells; type: cell-based; conditions: COLO 205, 48 hours treatment, read-out: CC50 (50% cytotoxic concentration)
Experimental: (§1) In the invention, the cytotoxic effect was evaluated by the viability of cancer/tumor cells measured by the MTT assay, in several cancer cell lines, including the cell lines 293, A549, Colo205, SK-HEP1, PC-3, PANC-1, and AGS.
(§2) The compounds as tested were dissolved in DMSO (100 mg/mL), along with Doxorubicin (Dox), taken as a benchmark control, and the in vitro cytotoxicity in cancer cell lines were tested from 60 or 100 μg/mL with three-fold serial dilutions, and the 50% cytotoxic concentration (CC50) of test articles was determined by MTT assay.
(§3) Seven cancer cell lines were used in this example, including 293 (human embryonic kidney cells 293), A549 (human non-small cell lung cancer cells), Colo205 (human colon adenocarcinoma cells), SK-HEP1 (human hepatic cancer cells), PC-3 (human prostate carcinoma), PANC-1 (human pancreatic epithelioid carcinoma), and AGS (human gastric adenocarcinoma cells), cultured in the media and indicated as the table above. Briefly, cells seeded in 96-well plates were treated for 48 hours with the compounds as tested and the solvent (0.1% DMSO) as the vehicle control, respectively. Cell viability was determined by the MTT method, and the CC50 values were calculated using GraFit (Version 7, Erithacus Software Ltd., Horley, UK) and recorded.

[2] = system: SK-HEP1 (human hepatic cancer cells); assay: MTT cytotoxicity assay in SK-HEP1 cells; type: cell-based; conditions: 48 hours treatment, read-out: CC50 (50% cytotoxic concentration)
Experimental: as §1, §2, §3

[3] = system: PC-3 (human prostate carcinoma); assay: MTT cytotoxicity assay in PC-3 cells; type: cell-based; conditions: 48 hours treatment, read-out: CC50 (50% cytotoxic concentration)
Experimental: as §1, §2, §3

[4] = system: AGS (human gastric adenocarcinoma cells); assay: MTT cytotoxicity assay in AGS cells; type: cell-based; conditions: 48 hours treatment, read-out: CC50 (50% cytotoxic concentration)
Experimental: as §1, §2, §3

[5] = system: PANC-1 (human pancreatic epithelioid carcinoma); assay: MTT cytotoxicity assay in PANC-1 cells; type: cell-based; conditions: 48 hours treatment, read-out: CC50 (50% cytotoxic concentration)
Experimental: as §1, §2, §3

[6] = system: A549 (human non-small cell lung cancer cells); assay: MTT cytotoxicity assay in A549 cells; type: cell-based; conditions: 48 hours treatment, read-out: CC50 (50% cytotoxic concentration)
Experimental: as §1, §2, §3

[7] = system: seven cancer cell lines (293, A549, Colo205, SK-HEP1, PC-3, PANC-1, AGS); assay: MTT cytotoxicity, overall statement for the seven cancer cell lines; type: cell-based, human; conditions: all seven cell lines, 48 hours
Experimental: as §1, §2, §3

[8] = system: 293 (human embryonic kidney cells 293); assay: MTT cytotoxicity assay in 293 cells; type: cell-based; conditions: HEK293, 48 hours treatment, read-out: CC50 (50% cytotoxic concentration)
Experimental: as §1, §2, §3

| Compound | CC50 [1] | CC50 [2] | CC50 [3] | CC50 [4] | CC50 [5] | CC50 [6] | cytotoxicity (result in words) [7] | CC50 [8] |
| --- | --- | --- | --- | --- | --- | --- | --- | --- |
| C/C1=C\CCC2=C[C@@H](C/C(C)=C/[C@@H]3OC(=O)C(CSCCO)[C@H]3CC1)OC2=O (stereo partly drawn) [Ova-ST2] | > 100 µg/mL | > 100 µg/mL | > 100 µg/mL | > 100 µg/mL | > 100 µg/mL | > 100 µg/mL | did not exhibit the cytotoxicity | > 100 µg/mL |
| COc1cccc2c1C(=O)c1c(O)c3c(c(O)c1C2=O)C[C@@](O)(C(=O)CO)C[C@@H]3O[C@H]1C[C@H](N)[C@H](O)[C@H](C)O1 [Dox, Doxorubicin] | 8.7 ± 0.6 µg/mL (≈ 16 µM) | 9.8 ± 0.2 µg/mL (≈ 18 µM) | 10.3 ± 1.5 µg/mL (≈ 19 µM) | 0.3 ± 0.1 µg/mL (≈ 0.552 µM) | 10.7 ± 1.5 µg/mL (≈ 19.7 µM) | > 10 µg/mL | – | > 10 µg/mL |
| C=C1C(=O)O[C@H]2/C=C(\C)C[C@@H]3C=C(CCC4OC4(C)CC[C@H]12)C(=O)O3 (stereo partly drawn) [Ova-Oxy] | 17 ± 0.2 µg/mL (≈ 49.4 µM) | 45.2 ± 3.2 µg/mL (≈ 131 µM) | 12.3 ± 5.4 µg/mL (≈ 35.7 µM) | 9.1 ± 0.9 µg/mL (≈ 26.4 µM) | 32 ± 0.8 µg/mL (≈ 92.9 µM) | 23 ± 4.7 µg/mL (≈ 66.8 µM) | exhibit cytotoxic effects in all of the seven cancer cell lines | 22.5 ± 0.5 µg/mL (≈ 65.3 µM) |
| C=C1C(=O)O[C@H]2/C=C(\C)C[C@@H]3C=C(CC/C=C(\C)CC[C@H]12)C(=O)O3 [AR100-DS1, ovatodiolide] | 41.7 ± 4.5 µg/mL (≈ 127 µM) | 49.9 ± 5.2 µg/mL (≈ 152 µM) | 17.8 ± 0.2 µg/mL (≈ 54.2 µM) | 13 ± 5.1 µg/mL (≈ 39.6 µM) | 40.2 ± 3.9 µg/mL (≈ 122 µM) | 29.6 ± 0.4 µg/mL (≈ 90.1 µM) | – | 25.7 ± 2.5 µg/mL (≈ 78.3 µM) |
